Here are results for 1 molecule from US20230355584A1, “COMPOSITIONS AND METHODS FOR THE TREATMENT OF LIPID-RELATED DISORDERS” (Raziel Therapeutics Ltd., priority 2020, published 2023).

What all share (type): in vivo
For series [1], the system named is submental fat. The experiment in a line: Phase 2a study: submental fat volume by MRI. To be noted: human subjects, day 84 vs prior to injection. The method, then:
28 patients with submental skin fold thickness greater than 1.5 cm as measured with calipers were divided into two cohorts, Cohort 1 (12 patients) and Cohort 2 (16 subjects). In Cohort 1, 8 subjects were injected with a 50 mg per mL solution of 5-(3,6-dibromo-9H-carbazol-9-yl)-N,N,N-trimethylpentan-1-aminium chloride (Compound 1A) in a vehicle comprising water, propylene glycol, and a surfactant, and 4 patients were injected with a placebo solution comprising vehicle only. In Cohort 2, 6 patients were dosed with a placebo solution comprising vehicle only, and 10 patients were injected with a 50 mg per mL solution of 5-(3,6-dibromo-9H-carbazol-9-yl)-N,N,N-trimethylpentan-1-aminium chloride in a vehicle comprising water, propylene glycol, and a surfactant. […] Cohort 2 subjects began treatment after Cohort 1 was evaluated for safety on day 28 post-injection. Submental fat volume was determined via magnetic resonance imaging (MRI) prior to injection and on day 84 post-injection. Treatment efficacy was evaluated via the Physician’s Global Assessment (PGS) questionnaire on days 28, 56, and 84 after injection, as described above. Patient satisfaction was assessed using the FACE-Q questionnaire prior to injection and on days 28, 56, and 84 after injection, as described above.

The test system of series [2] is submental fat. The experiment in a line: Phase 2a study: Subject Face-Q Questionnaire (subject satisfaction). To be noted: human subjects, Day 84 vs. baseline. The method, then: 28 patients with submental skin fold thickness greater than 1.5 cm as measured with calipers were divided into two cohorts, Cohort 1 (12 patients) and Cohort 2 (16 subjects). In Cohort 1, 8 subjects were injected with a 50 mg per mL solution of 5-(3,6-dibromo-9H-carbazol-9-yl)-N,N,N-trimethylpentan-1-aminium chloride (Compound 1A) in a vehicle comprising water, propylene glycol, and a surfactant, and 4 patients were injected with a placebo solution comprising vehicle only. […] Dosing is determined by cohort, as shown in Table 6 below: The maximum compound dose was 120 mg per patient (a total of 48 injections at 2.5 mg per injection) for Cohort 1 and 240 mg per patient (a total of 48 injections at 5 mg per injection) for Cohort 2. […] Cohort 2 subjects began treatment after Cohort 1 was evaluated for safety on day 28 post-injection. Subjects were also evaluated by a Face-Q Questionnaire, at baseline visit prior to injection and at posttreatment follow up visits on Days 28, 56, and 84. […] Submental fat volume was determined via magnetic resonance imaging (MRI) prior to injection and on day 84 post-injection. Treatment efficacy was evaluated via the Physician’s Global Assessment (PGS) questionnaire on days 28, 56, and 84 after injection, as described above. […]

The subject of series [3] is submental fat. The series can be described thus: Phase 2a study: Physician Impression scale (physician's global assessment of submental fat). Conditions: human, 18 treated subjects (low and high dose), Day 84 vs baseline. The method, then: 28 patients with submental skin fold thickness greater than 1.5 cm as measured with calipers were divided into two cohorts, Cohort 1 (12 patients) and Cohort 2 (16 subjects). In Cohort 1, 8 subjects were injected with a 50 mg per mL solution of 5-(3,6-dibromo-9H-carbazol-9-yl)-N,N,N-trimethylpentan-1-aminium chloride (Compound 1A) in a vehicle comprising water, propylene glycol, and a surfactant, and 4 patients were injected with a placebo solution comprising vehicle only. […] Dosing is determined by cohort, as shown in Table 6 below: The maximum compound dose was 120 mg per patient (a total of 48 injections at 2.5 mg per injection) for Cohort 1 and 240 mg per patient (a total of 48 injections at 5 mg per injection) for Cohort 2. […] Cohort 2 subjects began treatment after Cohort 1 was evaluated for safety on day 28 post-injection. […] Submental fat volume was determined via magnetic resonance imaging (MRI) prior to injection and on day 84 post-injection. Treatment efficacy was evaluated via the Physician’s Global Assessment (PGS) questionnaire on days 28, 56, and 84 after injection, as described above. Patient satisfaction was assessed using the FACE-Q questionnaire prior to injection and on days 28, 56, and 84 after injection, as described above.

Series [4] can be described thus: Phase 2a study: safety and tolerability (adverse events, vital signs). Conditions: human subjects. On the procedure:
28 patients with submental skin fold thickness greater than 1.5 cm as measured with calipers were divided into two cohorts, Cohort 1 (12 patients) and Cohort 2 (16 subjects). In Cohort 1, 8 subjects were injected with a 50 mg per mL solution of 5-(3,6-dibromo-9H-carbazol-9-yl)-N,N,N-trimethylpentan-1-aminium chloride (Compound 1A) in a vehicle comprising water, propylene glycol, and a surfactant, and 4 patients were injected with a placebo solution comprising vehicle only. In Cohort 2, 6 patients were dosed with a placebo solution comprising vehicle only, and 10 patients were injected with a 50 mg per mL solution of 5-(3,6-dibromo-9H-carbazol-9-yl)-N,N,N-trimethylpentan-1-aminium chloride in a vehicle comprising water, propylene glycol, and a surfactant.
The maximum compound dose was 120 mg per patient (a total of 48 injections at 2.5 mg per injection) for Cohort 1 and 240 mg per patient (a total of 48 injections at 5 mg per injection) for Cohort 2. Injections were given at a 90° angle to the injected skin surface and spaced of a submental area-shaped grid in which the distance between rows was 1 cm and the distance between columns was also 1 cm. Cohort 2 subjects began treatment after Cohort 1 was evaluated for safety on day 28 post-injection.

Consider `C[N+](C)(C)CCCCCn1c2ccc(Br)cc2c2cc(Br)ccc21.[Cl-]` [Compound 1A, 5-(3,6-dibromo-9H-carbazol-9-yl)-N,N,N-trimethylpentan-1-aminium chloride], for which the “Submental fat volume reduction (MRI)” value was -22.2% ± 14.9 with submental fat [1] (high dose (Cohort 2, 5 mg/injection, up to 240 mg), P<0.05 vs the placebo group) and -10.6% ± 14.5 with submental fat [1] (low dose (Cohort 1, 2.5 mg/injection, up to 120 mg), P=0.55 vs the placebo group, NS). Also, the “Fold increase in mean subject satisfaction score (Face-Q)” value in the series on submental fat [2] (high dose) is 2.5 fold; with submental fat [2] (low dose), 2.4 fold. The “Subjects demonstrating improvement in submental fat (Physician Impression scale)” value with submental fat [3] was “all but one of the 18”. Also, in series [4] (high dose group, particularly in the first 24 hours following injection), the “Severity of edema and induration compared to placebo” value was “higher severity”. In series [4] (low and high doses (averaged doses of 80 mg and 158.5 mg), no clinically significant changes in vital signs), the Safety and tolerability result was “safe and well tolerated”.
